Measured values from PubChem BioAssay AID248 (DTP/NCI, 2004).
Values joined by “and” are separate entries in the source; they are usually repeats but may differ in a detail not shown here. Identical values can stand only once. Toxic doses and inconclusive results are not listed. Cut-off read from the data, not from the text of the source: active = T/C of 150% or more; inactive = T/C below 125%.

System: L1210 leukemia ip in BDF1 mice, survival T/C
Assay: NCI In Vivo Anticancer Drug Screen. Data for tumor model L1210 Leukemia (intraperitoneal) in B6D2F1 (BDF1) mice
Conditions: endpoint: mean survival time, higher = longer survival
Method in brief: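 Each compound was tested against a transplantable tumor grown in mice. The endpoint was survival, with treated animals benchmarked against vehicle controls as a simple ratio.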

[1] = dose: 100.0 mg/kg/injection, schedule: Q01DX001 (ip), vehicle: saline
[2] = dose: 100.0 mg/kg/injection, schedule: Q04DX002 (ip), vehicle: saline
[3] = dose: 100.0 mg/kg/injection, schedule: Q04DX003 (ip), vehicle: saline
[4] = dose: 200.0 mg/kg/injection, schedule: Q01DX001 (ip), vehicle: saline
[5] = dose: 200.0 mg/kg/injection, schedule: Q04DX002 (ip), vehicle: saline
[6] = dose: 200.0 mg/kg/injection, schedule: Q04DX003 (ip), vehicle: saline
[7] = dose: 400.0 mg/kg/injection, schedule: Q01DX001 (ip), vehicle: saline
[8] = dose: 400.0 mg/kg/injection, schedule: Q04DX002 (ip), vehicle: saline
[9] = dose: 400.0 mg/kg/injection, schedule: Q04DX003 (ip), vehicle: saline
[10] = dose: 200.0 mg/kg/injection, schedule: Q04DX003 (ip), vehicle: Klucel (hydroxypropylcellulose) (HPC)
[11] = dose: 400.0 mg/kg/injection, schedule: Q04DX003 (ip), vehicle: Klucel (hydroxypropylcellulose) (HPC)
[12] = dose: 100.0 mg/kg/injection, schedule: Q01DX001 (ip), vehicle: carboxymethylcellulose (CMC)
[13] = dose: 200.0 mg/kg/injection, schedule: Q01DX001 (ip), vehicle: carboxymethylcellulose (CMC)
[14] = dose: 400.0 mg/kg/injection, schedule: Q01DX001 (ip), vehicle: carboxymethylcellulose (CMC)
[15] = dose: 25.0 mg/kg/injection, schedule: Q04DX003 (ip), vehicle: saline
[16] = dose: 50.0 mg/kg/injection, schedule: Q04DX003 (ip), vehicle: saline
[17] = dose: 100.0 mg/kg/injection, schedule: Q01DX009 (ip), vehicle: saline with Tween-80
[18] = dose: 200.0 mg/kg/injection, schedule: Q01DX009 (ip), vehicle: saline with Tween-80
[19] = dose: 400.0 mg/kg/injection, schedule: Q01DX009 (ip), vehicle: saline with Tween-80
[20] = dose: 100.0 mg/kg/injection, schedule: Q04DX003 (ip), vehicle: saline with Tween-80
[21] = dose: 200.0 mg/kg/injection, schedule: Q04DX003 (ip), vehicle: saline with Tween-80
[22] = dose: 100.0 mg/kg/injection, schedule: Q04DX003 (ip), vehicle: Klucel (hydroxypropylcellulose) (HPC)

Measured: T/C

C=C/C=C1\CCOC1=O
inactive: [1] 102 % of control | dose: 100.0 mg/kg/injection, schedule: Q01DX009 (ip), vehicle: saline 101 % of control and 112 % of control | [2] 100 % of control and 111 % of control | [3] 112 % of control | [4] 116 % of control | dose: 200.0 mg/kg/injection, schedule: Q01DX009 (ip), vehicle: saline 104 % of control and 118 % of control | [5] 104 % of control | [6] 100 % of control | [7] 110 % of control | dose: 400.0 mg/kg/injection, schedule: Q01DX009 (ip), vehicle: saline 107 % of control and 115 % of control | [8] 100 % of control and 102 % of control | [9] 115 % of control

Cc1cc(Cl)c(C)c(Cl)c1Cl
inactive: dose: 100.0 mg/kg/injection, schedule: Q01DX001 (ip), vehicle: acetone 100 % of control | dose: 100.0 mg/kg/injection, schedule: Q01DX009 (ip), vehicle: acetone 92 % of control | dose: 100.0 mg/kg/injection, schedule: Q04DX003 (ip), vehicle: acetone 93 % of control | dose: 200.0 mg/kg/injection, schedule: Q01DX001 (ip), vehicle: acetone 97 % of control | dose: 200.0 mg/kg/injection, schedule: Q01DX009 (ip), vehicle: acetone 95 % of control | dose: 200.0 mg/kg/injection, schedule: Q04DX003 (ip), vehicle: acetone 97 % of control | dose: 400.0 mg/kg/injection, schedule: Q01DX001 (ip), vehicle: acetone 90 % of control | dose: 400.0 mg/kg/injection, schedule: Q01DX009 (ip), vehicle: acetone 95 % of control | dose: 400.0 mg/kg/injection, schedule: Q04DX003 (ip), vehicle: acetone 92 % of control

Cc1ccc(S/C(=C/c2ccccc2)C(N)=O)cc1
inactive: [10] 93 % of control | [11] 95 % of control

Cc1ccc(NC(=O)Nc2ccc(Cl)cc2)c(C)c1
inactive: [12] 101 % of control | [13] 106 % of control | [14] 98 % of control

COc1ccc2c(C(=O)N(CCCl)CCCl)cc3cc(OC)c(OC)cc3c2c1
inactive: [15] 116 % of control | [16] 102 % of control

COC(=O)C1CC2C(CCC3C(C)(C(=O)OC)CCCC23C)C(=O)C1(O)C(C)C (stereo not drawn)
inactive: [17] 95 % of control | [18] 90 % of control | [19] 91 % of control

O=C(O)C1CCCCC1C(=O)Nc1cccc(C(F)(F)F)c1 (stereo not drawn)
inactive: dose: 12.5 mg/kg/injection, schedule: Q01DX009 (ip), vehicle: saline with Tween-80 102 % of control | dose: 25.0 mg/kg/injection, schedule: Q01DX009 (ip), vehicle: saline with Tween-80 101 % of control | dose: 50.0 mg/kg/injection, schedule: Q01DX009 (ip), vehicle: saline with Tween-80 88 % of control and 92 % of control | [20] 102 % of control | [21] 92 % of control

CC1=NN(c2ccc(S(=O)(=O)O)cc2)C(=O)/C1=C/c1ccc(Cl)cc1Cl
inactive: [1] 110 % of control | [22] 105 % of control | [4] 96 % of control | [10] 97 % of control | [7] 104 % of control | [11] 94 % of control

CCOc1n[n+]([O-])c(Cl)c(C)c1[N+](=O)[O-]
inactive: dose: 25.0 mg/kg/injection, schedule: Q04DX002 (ip), vehicle: saline with Tween-80 96 % of control | dose: 50.0 mg/kg/injection, schedule: Q04DX002 (ip), vehicle: saline with Tween-80 92 % of control | dose: 100.0 mg/kg/injection, schedule: Q04DX002 (ip), vehicle: saline with Tween-80 96 % of control

CCOC(=O)C(C[N+](C)(CC)CC)c1ccccc1 (stereo not drawn)
inactive: dose: 88.8 mg/kg/injection, schedule: Q01DX001 (ip), vehicle: carboxymethylcellulose (CMC) 97 % of control and 102 % of control | [12] 113 % of control | dose: 133.0 mg/kg/injection, schedule: Q01DX001 (ip), vehicle: carboxymethylcellulose (CMC) 105 % of control and 114 % of control | [13] 107 % of control and 118 % of control | dose: 300.0 mg/kg/injection, schedule: Q01DX001 (ip), vehicle: carboxymethylcellulose (CMC) 95 % of control and 104 % of control | [14] 98 % of control

Cc1cc(=O)[nH]c2c(OCOc3cccc4c(C)cc(=O)[nH]c34)cccc12
inactive: [22] 97 % of control | [10] 100 % of control | [11] 94 % of control

O=CNc1cc(Cl)cc(Cl)c1
inactive: dose: 25.0 mg/kg/injection, schedule: Q01DX009 (ip), vehicle: Klucel (hydroxypropylcellulose) (HPC) 97 % of control | dose: 50.0 mg/kg/injection, schedule: Q01DX009 (ip), vehicle: Klucel (hydroxypropylcellulose) (HPC) 94 % of control | dose: 100.0 mg/kg/injection, schedule: Q01DX009 (ip), vehicle: Klucel (hydroxypropylcellulose) (HPC) 114 % of control

CCOC(=O)C1(C(=O)OCC)C=C(CC)C(=O)OC1
inactive: dose: 50.0 mg/kg/injection, schedule: Q01DX001 (ip), vehicle: carboxymethylcellulose (CMC) 111 % of control | [12] 100 % of control | [13] 113 % of control | [14] 105 % of control

O=C(NCCCl)Nc1ccccc1-c1ccccc1
inactive: [22] 101 % of control | [10] 95 % of control | [11] 115 % of control

COC(=O)C(C)C(=O)O (stereo not drawn)
inactive: [2] 90 % of control | [5] 97 % of control | [8] 90 % of control

COc1cccc([Si](C)(C)[Si](C)C)c1
inactive: [3] 98 % of control | [6] 110 % of control | [9] 96 % of control

O=C(O)/C=C\C(=O)Nc1nc(NC(=O)/C=C/C(=O)O)cc(=O)[nH]1
inactive: [1] 97 % of control | [4] 100 % of control | [7] 103 % of control

O=C1C2C(C(=O)N1c1ccc(O)cc1)C1c3ccccc3C2C2CCCCN21 (stereo not drawn)
inactive: dose: 12.5 mg/kg/injection, schedule: Q04DX003 (ip), vehicle: saline 102 % of control | [15] 103 % of control | [16] 102 % of control | [3] 100 % of control

CC(c1ccccc1)C(O)c1ccccc1 (stereo not drawn)
inactive: dose: 100.0 mg/kg/injection, schedule: Q01DX001 (ip), vehicle: saline with Tween-80 97 % of control | dose: 200.0 mg/kg/injection, schedule: Q01DX001 (ip), vehicle: saline with Tween-80 91 % of control | dose: 400.0 mg/kg/injection, schedule: Q01DX001 (ip), vehicle: saline with Tween-80 91 % of control

O=C(O)CCC(NC(=O)OCc1ccccc1)C(=O)O (stereo not drawn)
inactive: [17] 100 % of control | [22] 103 % of control | dose: 100.0 mg/kg/injection, schedule: Q04DX003 (ip), vehicle: other 98 % of control | [20] 104 % of control and 95 % of control | [18] 98 % of control | [10] 99 % of control | dose: 200.0 mg/kg/injection, schedule: Q04DX003 (ip), vehicle: other 102 % of control | [21] 101 % of control and 92 % of control | [19] 98 % of control | [11] 91 % of control | dose: 400.0 mg/kg/injection, schedule: Q04DX003 (ip), vehicle: other 98 % of control | dose: 400.0 mg/kg/injection, schedule: Q04DX003 (ip), vehicle: saline with Tween-80 101 % of control and 104 % of control

O=NN(CCCl)C(=O)Nc1ccccc1NC(=O)N(CCCl)N=O
inactive: dose: 4.0 mg/kg/injection, schedule: Q01DX001 (ip), vehicle: carboxymethylcellulose (CMC) 122 % of control
